Experimental data: article PMC12400508 (RSC Advances, 2025)
Converted amounts (≈) assume the structure as drawn.

Key:
Type in all cases: cell-based, Mycobacterium tuberculosis
mc^26230_R1 = system: mc^26230_R1
mc^26230_R3 = system: mc^26230_R3
[1] = system: mc^26230 overexpressing InhA (pMV261_inhA); experiment: microbe, parasite or virus in culture; conditions: for fold change between the strain harboring the empty plasmid pMV261 and the strain overexpressing InhA: MIC pMV261_inhA / MIC pMV261; for MIC: Mycobacterium tuberculosis, read-out: MIC, pMV261_inhA

Structure (SMILES)	MIC, mc^26230_R1 (mc^26230_R1) [mg/L]	fold increase of MIC in the KatG mutated strains versus parental strain (mc^26230_R1) [fold]	MIC, mc^26230_R3 (mc^26230_R3) [mg/L]	MIC, pMV261_inhA [1]	fold change between the strain harboring the empty plasmid pMV261 and the strain overexpressing InhA [1] [fold]	MIC [1] [mg/L]
O=C1N=C(NNC(=O)c2ccncc2)S/C1=C\c1ccccc1Cl [9p]	100 (≈ 279 µM)	4	100 (≈ 279 µM)	–	–	–
CO[C@H]1/C=C/O[C@@]2(C)Oc3c(C)c(O)c4c(O)c(c(/C=N/N5CCN(C)CC5)c(O)c4c3C2=O)NC(=O)/C(C)=C\C=C\[C@H](C)[C@H](O)[C@@H](C)[C@@H](O)[C@@H](C)[C@H](OC(C)=O)[C@@H]1C [RIF, reference compound]	–	–	–	unaffected	1	0.039 (≈ 0.0474 µM)
O=C1N=C(NNC(=O)c2ccncc2)S/C1=C\c1ccc(Cl)cc1 [9n]	100 (≈ 279 µM)	8	100 (≈ 279 µM)	–	4	100 (≈ 279 µM)
Cc1ccccc1/C=C1\SC(NNC(=O)c2ccncc2)=NC1=O [9d]	50 (≈ 148 µM)	32	50 (≈ 148 µM)	–	16	50 (≈ 148 µM)
O=C1N=C(NNC(=O)c2ccncc2)S/C1=C\c1ccccc1F [9l]	100 (≈ 292 µM)	4	100 (≈ 292 µM)	–	–	–
O=C1N=C(NNC(=O)c2ccncc2)S/C1=C\c1ccc(F)cc1 [9j]	100 (≈ 292 µM)	8	100 (≈ 292 µM)	–	8	100 (≈ 292 µM)
NNC(=O)c1ccncc1 [INH, isoniazid, reference compound]	>10	–	>10	–	16	1.25 (≈ 9.11 µM)
